Source: patent publication US11957684B2, “Treatment of heavy menstrual bleeding associated with uterine fibroids” (Sumitomo Pharma Switzerland GmbH, priority 2016, dated 2024)
Several values for one entry are separate records, joined by “and”; a condition that tells them apart may be missing. Equal values may be shown once.

Key:
[1] = test system: LH, FSH, estradiol (E2), progesterone (P), CA125; test: Example 8A: serum LH, FSH, E2, P and CA125; type: in vivo, human
Source text: Study participants were premenopausal (≥20 years) Japanese women with endometriosis (EM)-associated pain who completed a preceding 12-week study and were eligible to continue for an additional 12-week treatment were enrolled. The participants has confirmed normal regular menstrual cycles (25 to 38 days per cycle) and diagnosed to have EM and EM-related dysmenorrhea and pelvic pain of at least moderate severity as determined by the physician B&B scale. The primary endpoint was the safety including assessment of change in bone mineral density (BMD) using dual energy x-ray absorptiometry, adverse events, vital signs, weight, 12-lead electrocardiograms, and clinical laboratory tests. […] Baseline characteristics were similar between randomized patients and all patients who entered the extension study.

uterine fibroids = test: Example 10 phase 3 study versus leuprorelin in uterine fibroids: efficacy; type: in vivo, human; settings: between Week 6 and Week 12
Experimental: Subjects were aged 20 years or older inclusive, with uterine fibroids. […] The number of sites for this study was approximately 40.
The leuprorelin subjects were administered 1.88 mg leuprorelin, 3.75 mg leuprorelin, or placebo subcutaneously once every 4 weeks. The duration of treatment for both groups was 24 weeks, and the follow-up period was 4 weeks.
Assessment included answers to the uterine fibroid symptom and quality of life questionnaire provided in FIGS. 3A-3C; answers to the work productivity and activity impairment questionnaire: general health provided in FIGS. 66A-66B; clinical laboratory tests for hematology, chemistries, urinalysis, hormone, and biochemical bone metabolism markers.

clinical = settings: for half-life: human, in vivo
Source text: (See J. W. Ng, et al., “Dose-Dependent Suppression of Gonadotropins and Ovarian Hormones by Elagolix in Healthy Premenopausal Females” (poster, 2016); J. Grundy, et al., […] (2008), Vol 83: Supplement 1, S9).

FIG. 10 = test: FIG. 10
Experimental: Table printed on a drawing sheet, FIG. 10
The patent's description of the figure: FIG. 10 is a table of urine PK parameters for Cohort 7 in accordance with Example 4.
First reader's note: Urine PK parameters for Cohort 7 (fed vs fasted, 40 mg); each column is a dosing arm and the rows give summary statistics per parameter.

FIG. 12 = test: FIG. 12
Source text: Table printed on a drawing sheet, FIG. 12
The patent's description of the figure: FIG. 12 is a table of urine PK parameters for Cohorts 8 to 10 on Day 1 of the treatment period in accordance with Example 4.
First reader's note: Per the description these are urine PK parameters for Cohorts 8 to 10 on Day 1; each column is one dose group.

[2] = test system: women with uterine fibroids; test: Example 10: safety
Source text: Secondary endpoints for safety included: Adverse events (AEs), vital signs, weight, standard 12-lead electrocardiogram (ECG), clinical laboratory tests, BMD, biochemical bone metabolism markers (serum N-telopeptide [NTELOP] and bone specific alkaline phosphatase [BAP])

Question: For `CONC(=O)Nc1ccc(-c2sc3c(c2CN(C)C)c(=O)n(-c2ccc(OC)nn2)c(=O)n3Cc2c(F)cccc2F)cc1` [Compound 1, N-(4-(1-(2,6-difluorobenzyl)-5-((dimethylamino)methyl)-3-(6-methoxy-3-pyridazinyl)-2,4-dioxo-1,2,3,4-tetrahydrothieno[2,3-d]pyrimidin-6-yl)phenyl)-N′-methoxyurea], which “median change in serum LH from baseline” value ([1]; 40 mg, Week 24) is on record?
Answer: The value was −2.480 mIU/mL.

Question: What about the “median change in serum progesterone (P) from baseline” value ([1]; 40 mg, Week 24) of the same compound?
Answer: The value was -0.080 ng/mL.

Question: What about the “subjects with CA125 less than or equal to 35 U/mL” value ([1]; 40 mg, Week 24) of the same compound?
Answer: Its value is 88.5%.

Question: What about the “week at which median serum E2 decreased to LLQ” value ([1]; Compound 1 40 mg, leuprolide acetate 3.75 mg/4 wk) of the same compound?
Answer: Its value is 2 Week.

Question: What about the “proportion of subjects with a PBAC <10” value (uterine fibroids) of the same compound?
Answer: Its value is 82.2%.

Question: What about the “E2 in the majority of subjects” value (clinical; 40 mg per day) of the same compound?
Answer: Its value is “below 10 pg/mL”.

Question: And the half-life (clinical; T1/2, highest found)?
Answer: Its half-life is roughly 61 h.

Question: What about the half-life (clinical; half-life (T1/2)) of the same compound?
Answer: The half-life was 37 to 42 h.

Question: And the “CLr (L/hr) | Mean” value (FIG. 10)?
Answer: The value was 6.1047 L/h and 6.7583 L/h.

Question: What about the “Fe (%) | Mean” value (FIG. 10) of the same compound?
Answer: Its value is 0.919% and 1.963%.

Question: And the “CLr (L/hr) | Mean” value (FIG. 12)?
Answer: Its value is 7.1595 L/h and 6.7303 L/h and 7.7148 L/h.

Question: And the “Fe (%) | Mean” value (FIG. 12)?
Answer: The value was 0.639% and 0.938% and 1.209%.

Question: What about the “AE: Arthralgia” value ([2]; 24 wk) of the same compound?
Answer: Its value is 8(5.8) n(%).

Question: And the “AE: Bone density decreased” value ([2]; 24 wk)?
Answer: The value was 6(4.3) n(%).

Question: What about the “AE: Bone resorption test abnormal” value ([2]; 24 wk) of the same compound?
Answer: The value was 7(5.1) n(%).

Question: What about the “AE: Dizziness” value ([2]; 24 wk) of the same compound?
Answer: Its value is 9(6.5) n(%).

Question: What about the “AE: Gamma-glutamyl transferase increased” value ([2]; 24 wk) of the same compound?
Answer: Its value is 7(5.1) n(%).

Question: And the “AE: Genital haemorrhage” value ([2]; 24 wk)?
Answer: Its value is 7(5.1) n(%).

Question: What about the “AE: Headache” value ([2]; 24 wk) of the same compound?
Answer: The value was 21(15.2) n(%).

Question: What about the “AE: Hot flush” value ([2]; 24 wk) of the same compound?
Answer: Its value is 59(42.8) n(%).

Question: What about the “AE: Hyperhidrosis” value ([2]; 24 wk) of the same compound?
Answer: Its value is 13(9.4) n(%).

Question: And the “AE: Malaise” value ([2]; 24 wk)?
Answer: Its value is 8(5.8) n(%).

Question: What about the “AE: Menorrhagia” value ([2]; 24 wk) of the same compound?
Answer: Its value is 34(24.6) n(%).

Question: And the “AE: Metrorrhagia” value ([2]; 24 wk)?
Answer: Its value is 68(49.3) n(%).

Question: What about the “AE: Resorption bone increased” value ([2]; 24 wk) of the same compound?
Answer: Its value is 7(5.1) n(%).

Question: What about the “AE: Somnolence” value ([2]; 24 wk) of the same compound?
Answer: Its value is 7(5.1) n(%).

Question: And the “AE: Viral upper respiratory tract infection” value ([2]; 24 wk)?
Answer: The value was 39(28.3) n(%).

Question: What about the “AEs Leading to Study Drug Discontinuation” value ([2]; 24 wk) of the same compound?
Answer: The value was 9(6.5) n(%).

Question: What about the Deaths ([2]; 24 wk) of the same compound?
Answer: The Deaths was 0(0.0) n(%).

Question: What about the “SAEs Leading to Study Drug Discontinuation” value ([2]; 24 wk) of the same compound?
Answer: The value was 0(0.0) n(%).

Question: And the “Serious Treatment-Emergent AEs” value ([2]; 24 wk)?
Answer: The value was 0(0.0) n(%).

Question: And the “Serious Treatment-Emergent AEs, Not Related” value ([2]; 24 wk)?
Answer: Its value is 0(0.0) n(%).

Question: And the “Serious Treatment-Emergent AEs, Related” value ([2]; 24 wk)?
Answer: Its value is 0(0.0) n(%).

Question: And the “Treatment-Emergent AEs” value ([2]; 24 wk)?
Answer: The value was 131(94.9) n(%).

Question: And the “Treatment-Emergent AEs, Not Related” value ([2]; 24 wk)?
Answer: The value was 11(8.0) n(%).

Question: What about the “Treatment-Emergent AEs, Related” value ([2]; 24 wk) of the same compound?
Answer: The value was 120(87.0) n(%).

Question: And the “AE leading to discontinuation: Abdominal pain” value ([2]; in vivo)?
Answer: Its value is 0(0.0) n(%).

Question: What about the “AE leading to discontinuation: Arthralgia” value ([2]; in vivo) of the same compound?
Answer: Its value is 1(0.7) n(%).

Question: What about the “AE leading to discontinuation: Back pain” value ([2]; in vivo) of the same compound?
Answer: Its value is 0(0.0) n(%).

Question: And the “AE leading to discontinuation: Blood pressure increased” value ([2]; in vivo)?
Answer: The value was 0(0.0) n(%).

Question: And the “AE leading to discontinuation: Depression” value ([2]; in vivo)?
Answer: The value was 1(0.7) n(%).

Question: And the “AE leading to discontinuation: Drug eruption” value ([2]; in vivo)?
Answer: The value was 0(0.0) n(%).

Question: What about the “AE leading to discontinuation: Fatigue” value ([2]; in vivo) of the same compound?
Answer: The value was 1(0.7) n(%).

Question: What about the “AE leading to discontinuation: Headache” value ([2]; in vivo) of the same compound?
Answer: The value was 1(0.7) n(%).

Question: What about the “AE leading to discontinuation: Hot flush” value ([2]; in vivo) of the same compound?
Answer: The value was 4(2.9) n(%).

Question: What about the “AE leading to discontinuation: Hypertension” value ([2]; in vivo) of the same compound?
Answer: Its value is 0(0.0) n(%).

Question: What about the “AE leading to discontinuation: Malaise” value ([2]; in vivo) of the same compound?
Answer: Its value is 1(0.7) n(%).

Question: And the “AE leading to discontinuation: Nausea” value ([2]; in vivo)?
Answer: The value was 0(0.0) n(%).

Question: What about the “AE leading to discontinuation: Pyrexia” value ([2]; in vivo) of the same compound?
Answer: The value was 0(0.0) n(%).

Question: And the “AE leading to discontinuation: Tenosynovitis” value ([2]; in vivo)?
Answer: The value was 1(0.7) n(%).

Question: What about the “AE leading to discontinuation: Tenosynovitis stenosans” value ([2]; in vivo) of the same compound?
Answer: Its value is 1(0.7) n(%).

Question: What about the “ALP > 3 × ULN” value ([2]; in vivo) of the same compound?
Answer: Its value is 0 (0.0) n (%).

Question: What about the “ALT > 3 × ULN” value ([2]; in vivo) of the same compound?
Answer: The value was 3 (2.2) n (%).

Question: What about the “ALT > 5 × ULN” value ([2]; in vivo) of the same compound?
Answer: Its value is 1 (0.7) n (%).

Question: What about the “ALT and AST > 3 × ULN” value ([2]; in vivo) of the same compound?
Answer: Its value is 2 (1.4) n (%).

Question: What about the “ALT or AST > 3 × ULN with Tbili > 2 × ULN” value ([2]; in vivo) of the same compound?
Answer: Its value is 0 (0.0) n (%).

Question: And the “AST > 3 × ULN” value ([2]; in vivo)?
Answer: The value was 2 (1.4) n (%).

Question: And the “AST > 5 × ULN” value ([2]; in vivo)?
Answer: The value was 0 (0.0) n (%).

Question: What about the “Any Markedly Abnormal LFT” value ([2]; in vivo) of the same compound?
Answer: The value was 3 (2.2) n (%).
